According to patent publication US11414403B2, “Antibacterial compound and uses of same” (BIOMÉRIEUX, priority 2017, dated 2022):
≈ marks a conversion by molar mass, not a printed value.

How the values were obtained:
Assay in all cases: MIC by agar dilution method
Format in all cases: cell-based
[1] = test system: Escherichia coli NCTC 12241; details: NCTC12241, 22 hours at 37° C.
Description: (§1) The minimum inhibitory concentrations (MICs) of L-pyroglutamyl-L-1-aminoethyltetrazole (12) for 13 Gram-negative strains of bacteria and 8 Gram-positive strains of bacteria were determined using an agar dilution method described by Andrews J M. 2001 (“Determination of minimum inhibitory concentrations[…]; J. Antimicrob. Chemother. (2001) 48 Suppl. 1:5-16). Said method required the use of a defined antagonist-free medium (without peptone), prepared in the way previously described with the inclusion of 2% saponin-lysed horse blood, 25.0 μg/ml of NAD and 25.0 μg/ml of hemin (Atherton et al., 1979; “Phosphonopeptides as antibacterial agents: rationale, chemistry, and structure-activity relationships[…]; Antimicrob. Agents Chemother. (1979) 15:677-683). […] All the isolates were prepared at a density equivalent to […] in sterile deionized water using a densitometer (approximately 1.5×10^8 CFU/ml), then diluted to […]. A 1 μl aliquot of each diluted suspension was then placed on dishes with a multispot inoculator to give the recommended final inoculation of 10 000 CFU/spot (Andrews, 2001. “Determination of minimum inhibitory concentrations”; J. Antimicrob. Chemother. 48 Suppl 1:5-16). All the dishes (including the antimicrobial-free controls) were incubated for 22 hours at 37° C. All the tests were carried out on at least two independent replicates in order to examine the reproducibility.
(§2) The bacterial isolates tested all come from international collections, the American Type Culture Collection (ATCC) and the National Collection of Type Cultures (NCTC).

[2] = test system: Pseudomonas aeruginosa NCTC 10662; details: NCTC10662, 22 hours at 37° C.
Description: as §1, §2

[3] = test system: Escherichia coli NCTC 10418; details: NCTC10418, 22 hours at 37° C.
Description: as §1, §2

[4] = test system: Burkholderia cepacia ATCC 25416; details: ATCC25416, 22 hours at 37° C.
Description: as §1, §2

[5] = test system: Staphylococcus aureus (MSSA) NCTC 6571; details: 22 hours at 37° C.
Description: as §1, §2

[6] = test system: Providencia rettgeri NCTC 7475; details: NCTC7475, 22 hours at 37° C.
Description: as §1, §2

[7] = test system: Enterococcus faecalis NCTC 775
Description: as §1, §2

[8] = test system: Staphylococcus aureus (MRSA) NCTC 11939; details: 22 hours at 37° C.
Description: as §1, §2

[9] = test system: Salmonella enteritidis NCTC 6676; details: Salmonella enterica, 22 hours at 37° C.
Description: as §1, §2

[10] = test system: Serratia marcescens NCTC 10211
Description: as §1, §2

[11] = test system: Enterobacter cloacae NCTC 11936; details: NCTC11936, 22 hours at 37° C.
Description: as §1, §2

[12] = test system: Enterococcus faecium NCTC 7171
Description: as §1, §2

[13] = test system: Salmonella typhimurium NCTC 74; details: Salmonella enterica, 22 hours at 37° C.
Description: as §1, §2

[14] = test system: Streptococcus agalactiae NCTC 8181; details: NCTC8181, 22 hours at 37° C.
Description: as §1, §2

[15] = test system: Staphylococcus epidermidis NCTC 11047; details: NCTC11047, 22 hours at 37° C.
Description: as §1, §2

[16] = test system: Salmonella enteritidis NCTC 74; details: Salmonella enterica, 22 hours at 37° C.
Description: as §1, §2

[17] = test system: Yersinia enterocolitica NCTC 11176
Description: as §1, §2

[18] = test system: Acinetobacter baumannii ATCC 19606; details: ATCC19606, 22 hours at 37° C.
Description: as §1, §2

[19] = test system: Klebsiella pneumoniae NCTC 9528
Description: as §1, §2

[20] = test system: Bacillus subtilis NCTC 9372
Description: as §1, §2

[21] = test system: Listeria monocytogenes NCTC 11994; details: NCTC11994, 22 hours at 37° C.
Description: as §1, §2

[22] = at very low concentrations, of about 2 mg/l, enterococci

Structure (SMILES): C[C@H](NC(=O)[C@@H]1CCC(=O)N1)c1nnn[nH]1 [compound 12, L-pyroglutamyl-L-1-aminoethyltetrazole]
- MIC [1]: > 128 µg/mL
- MIC [2]: > 128 µg/mL
- MIC [3]: > 128 µg/mL
- MIC [4]: > 128 µg/mL
- MIC [5]: > 128 µg/mL
- MIC [6]: > 128 µg/mL
- antibacterial activity (in words) ([7]; Enterococcus faecalis): highly inhibitory
- MIC ([7]; NCTC775, Enterococcus faecalis NCTC 775, 22 hours at 37° C.): 2 µg/mL (≈ 8.92 µM)
- inhibition specificity (in words) [7, 22]: excellent inhibition specificity for enterococci
- MIC [8]: > 128 µg/mL
- MIC [9]: > 128 µg/mL
- MIC ([10]; NCTC10211, Serratia marcescens NCTC 10211, 22 hours at 37° C.): 8 µg/mL (≈ 35.7 µM)
- antibacterial activity (in words) ([10]; Serratia marcescens): highly inhibitory
- MIC [11]: > 128 µg/mL
- antibacterial activity (in words) ([12]; Enterococcus faecium): highly inhibitory
- MIC ([12]; NCTC7171, Enterococcus faecium NCTC 7171, 22 hours at 37° C.): 2 µg/mL (≈ 8.92 µM)
- inhibition specificity (in words) [12, 22]: excellent inhibition specificity for enterococci
- MIC [13]: > 128 µg/mL
- MIC [14]: > 128 µg/mL
- MIC [15]: > 128 µg/mL
- MIC [16]: > 128 µg/mL
- Growth at various concentrations (mg/l) ([17]; 2 mg/l, Yersinia enterocolitica NCTC 11176): Tr.
- MIC ([17]; NCTC11176, Yersinia enterocolitica NCTC 11176, 22 hours at 37° C.): 4 µg/mL (≈ 17.8 µM)
- antibacterial activity (in words) ([17]; Yersinia enterocolitica): highly inhibitory
- MIC [18]: > 128 µg/mL
- Growth at various concentrations (mg/l) ([19]; 4 mg/l, Klebsiella pneumoniae NCTC 9528): Tr.
- antibacterial activity (in words) ([19]; Klebsiella pneumoniae): highly inhibitory
- MIC ([19]; NCTC9528, Klebsiella pneumoniae NCTC 9528, 22 hours at 37° C.): 8 µg/mL (≈ 35.7 µM)
- antibacterial activity (in words) ([20]; Bacillus subtilis): highly inhibitory
- MIC ([20]; NCTC9372, Bacillus subtilis NCTC 9372, 22 hours at 37° C.): 64 µg/mL (≈ 285 µM)
- MIC [21]: > 128 µg/mL
